Measured values taken from PubChem BioAssay AID180 (DTP/NCI, 2004).
Values joined by “and” are separate entries in the source; they are usually repeats but may differ in a detail not shown here. Identical values can stand only once.

Tested on: BDF1 mice, Adenocarcinoma 755 s.c., tumor weight T/C
Assay: NCI In Vivo Anticancer Drug Screen. Data for tumor model Adenocarcinoma 755 (subcutaneous) in B6D2F1 (BDF1) mice
Settings: endpoint: mean tumor weight, higher = larger tumour
How it was run: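 Compound activity was tested in mice carrying transplanted tumors. Survival or tumor size was measured, and each value is the treated-group measurement divided by that of the vehicle-treated control group (T/C).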

[1] = dose: 15.0 mg/kg/injection, schedule: Q01DX011 (ip), vehicle: other
[2] = dose: 100.0 mg/kg/injection, schedule: Q01DX011 (ip), vehicle: methylcellulose (MC)

For `ClCCn1cnc2c(SCc3ccccc3)ncnc21`, the T/C (dose: 0.5 mg/kg/injection, schedule: Q01DX011 (ip), vehicle: other) was 115 % of control, the T/C (dose: 0.5 mg/kg/injection, schedule: Q01DX011 (oral), vehicle: other) was 98 % of control and the T/C (dose: 1.0 mg/kg/injection, schedule: Q01DX011 (ip), vehicle: other) was 72 % of control. The T/C (dose: 1.0 mg/kg/injection, schedule: Q01DX011 (oral), vehicle: other) was 79 % of control, the T/C (dose: 2.0 mg/kg/injection, schedule: Q01DX011 (ip), vehicle: other) was 67 % of control and the T/C (dose: 2.0 mg/kg/injection, schedule: Q01DX011 (oral), vehicle: other) was 72 % of control. For the same compound, the T/C (dose: 4.0 mg/kg/injection, schedule: Q01DX011 (ip), vehicle: other) was 36 % of control, the T/C (dose: 4.0 mg/kg/injection, schedule: Q01DX011 (oral), vehicle: other) was 40 % of control and the T/C (dose: 8.0 mg/kg/injection, schedule: Q01DX011 (ip), vehicle: other) was 3 % of control. The T/C [1] was 3 % of control, the T/C (dose: 15.0 mg/kg/injection, schedule: Q01DX011 (oral), vehicle: other) was 7 % of control and the T/C (dose: 25.0 mg/kg/injection, schedule: Q01DX011 (ip), vehicle: carboxymethylcellulose (CMC)) was 1 % of control. The T/C (dose: 50.0 mg/kg/injection, schedule: Q01DX011 (ip), vehicle: carboxymethylcellulose (CMC)) was 3 % of control.

With `CC(C)CCn1cnc2c(SCc3ccccc3F)nc(N)nc21` the T/C (dose: 30.0 mg/kg/injection, schedule: Q01DX011 (ip), vehicle: methylcellulose (MC)) was 62 % of control, the T/C [2] was 65 % of control and the T/C (dose: 300.0 mg/kg/injection, schedule: Q01DX011 (ip), vehicle: methylcellulose (MC)) was 10 % of control.

With `CNc1ncnc2c1ncn2C1CC(O)C(CO)O1` (stereo unspecified) the T/C (dose: 60.0 mg/kg/injection, schedule: Q01DX011 (ip), vehicle: saline) was 92 % of control and the T/C (dose: 120.0 mg/kg/injection, schedule: Q01DX011 (ip), vehicle: saline) was 94 % of control.

For `CC(CNC(=O)CCBr)NC(=O)CCBr` (stereo unspecified), the T/C (dose: 37.5 mg/kg/injection, schedule: Q01DX011 (ip), vehicle: carboxymethylcellulose (CMC)) was 79 % of control and 81 % of control, the T/C (dose: 75.0 mg/kg/injection, schedule: Q01DX011 (ip), vehicle: carboxymethylcellulose (CMC)) was 26 % of control and 36 % of control and the T/C (dose: 150.0 mg/kg/injection, schedule: Q01DX011 (ip), vehicle: carboxymethylcellulose (CMC)) was 10 % of control and 19 % of control.

With `Cn1cnc(=N)c2[nH]cnc21` the T/C (dose: 30.0 mg/kg/injection, schedule: Q01DX011 (ip), vehicle: carboxymethylcellulose (CMC)) was 97 % of control, the T/C (dose: 60.0 mg/kg/injection, schedule: Q01DX011 (ip), vehicle: carboxymethylcellulose (CMC)) was 93 % of control and the T/C (dose: 120.0 mg/kg/injection, schedule: Q01DX011 (ip), vehicle: carboxymethylcellulose (CMC)) was 73 % of control. For the same compound, the T/C (dose: 240.0 mg/kg/injection, schedule: Q01DX011 (ip), vehicle: carboxymethylcellulose (CMC)) was 93 % of control.

In the case of `NC(=O)c1n[nH]nc1N=Nc1c(O)ccc2ccccc12`, the T/C (dose: 16.0 mg/kg/injection, schedule: Q01DX011 (ip), vehicle: carboxymethylcellulose (CMC)) is reported as 85 % of control, the T/C (dose: 31.0 mg/kg/injection, schedule: Q01DX011 (ip), vehicle: carboxymethylcellulose (CMC)) is reported as 120 % of control and the T/C (dose: 62.0 mg/kg/injection, schedule: Q01DX011 (ip), vehicle: carboxymethylcellulose (CMC)) is reported as 204 % of control.

`CC(c1ccccc1)c1nc2c([nH]1)c(=O)n(C)c(=O)n2C` (stereo unspecified) was tested, and the T/C (dose: 40.0 mg/kg/injection, schedule: Q01DX011 (ip), vehicle: methylcellulose (MC)) was 99 % of control, the T/C (dose: 75.0 mg/kg/injection, schedule: Q01DX011 (ip), vehicle: methylcellulose (MC)) was 86 % of control and the T/C (dose: 150.0 mg/kg/injection, schedule: Q01DX011 (ip), vehicle: methylcellulose (MC)) was 72 % of control.

With `c1ccc(N2N=C3N(c4ccccc4)C2N3c2ccccc2)cc1` the T/C [1] was 87 % of control.

For `Clc1ccc(CNc2ncnc3c2cnn3C2CCCCO2)cc1Cl` (stereo unspecified), the T/C (dose: 12.5 mg/kg/injection, schedule: Q01DX011 (ip), vehicle: methylcellulose (MC)) was 83 % of control, the T/C (dose: 25.0 mg/kg/injection, schedule: Q01DX011 (ip), vehicle: methylcellulose (MC)) was 105 % of control and the T/C [2] was 40 % of control and 61 % of control. For the same compound, the T/C (dose: 200.0 mg/kg/injection, schedule: Q01DX011 (ip), vehicle: methylcellulose (MC)) was 23 % of control.
